# Data reported in patent publication US11111237B2, “Bicyclic compound and use thereof” (SK BIOPHARMACEUTICALS CO., LTD., priority 2019, dated 2021).
# Counter-ions that a name gives are not always drawn.
# Molecular target: PRMT5-MEP50 enzyme complex (Homo sapiens (Human), UniProt O14744)
# Test: PRMT5 enzyme activity in vitro assay (methylation of histone H4R3, ELISA absorbance at 450 nm)
# Format: biochemical
# Conditions: SAM, histone H4 peptide, room temperature 2 hours, 8 points from 10 μM to 0.128 nM
# How it was run: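 Human PRMT5-MEP50 was prepared at 5 μg/mL with SAM at 2 μM and reacted 2 h at room temperature on plate-coated histone H4 (1-20) peptide. An 8-point 1:5 compound series ran from 10 μM to 0.128 nM. H4R3 methylation was detected by antibody/HRP ELISA at 450 nm to give IC50.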
# Sequence of PRMT5-MEP50 enzyme complex (O14744 2-637): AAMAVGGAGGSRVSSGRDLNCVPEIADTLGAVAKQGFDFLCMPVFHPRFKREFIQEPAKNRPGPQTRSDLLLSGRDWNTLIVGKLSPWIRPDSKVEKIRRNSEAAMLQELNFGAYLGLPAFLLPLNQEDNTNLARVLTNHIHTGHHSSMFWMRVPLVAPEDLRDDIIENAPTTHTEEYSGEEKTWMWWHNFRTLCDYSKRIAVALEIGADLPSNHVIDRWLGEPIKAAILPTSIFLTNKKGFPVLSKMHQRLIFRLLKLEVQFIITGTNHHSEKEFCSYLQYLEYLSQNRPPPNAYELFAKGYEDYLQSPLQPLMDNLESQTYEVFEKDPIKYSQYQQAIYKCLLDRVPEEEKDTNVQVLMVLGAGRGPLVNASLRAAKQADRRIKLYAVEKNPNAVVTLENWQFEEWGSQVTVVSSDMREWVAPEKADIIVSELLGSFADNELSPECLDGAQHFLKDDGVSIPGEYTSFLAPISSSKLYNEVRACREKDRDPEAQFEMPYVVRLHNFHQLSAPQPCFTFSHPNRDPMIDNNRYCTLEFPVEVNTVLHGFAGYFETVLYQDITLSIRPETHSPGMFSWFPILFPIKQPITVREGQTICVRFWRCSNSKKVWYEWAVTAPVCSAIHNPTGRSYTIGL
# Sequence of PRMT5-MEP50 enzyme complex (Q9BQA1 2-342 partner): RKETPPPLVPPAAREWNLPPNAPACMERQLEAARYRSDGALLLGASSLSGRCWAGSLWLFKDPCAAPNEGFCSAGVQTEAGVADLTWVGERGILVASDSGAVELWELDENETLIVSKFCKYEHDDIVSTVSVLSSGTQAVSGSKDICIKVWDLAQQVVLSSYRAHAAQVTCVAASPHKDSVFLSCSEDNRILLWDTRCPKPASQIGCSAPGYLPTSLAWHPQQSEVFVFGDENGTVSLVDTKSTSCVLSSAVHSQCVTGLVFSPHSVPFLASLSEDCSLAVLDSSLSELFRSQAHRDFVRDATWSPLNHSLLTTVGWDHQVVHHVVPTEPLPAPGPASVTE
row,Structure (SMILES),IC50
1,"CC(=O)N1CCC(Oc2ccc3c(c2)OCCN(C[C@H](O)CN2CCc4ccccc4C2)C3=O)CC1 [Example 78, 8-[(1-acetyl-4-piperidyl)oxy]-4-[(2R)-3-(3,4-dihydro-1H-isoquinolin-2-yl)-2-hydroxy-propyl]-2,3-dihydro-1,4-benzoxazepin-5-one]",1 to 100 nM
2,"CN1CCN(C[C@H](O)CN2CCc3ccccc3C2)C(=O)c2ccc(C3=CCC(C(F)(F)F)CC3)cc21 (stereo partly drawn) [Example 119, 4-[(2R)-3-(3,4-dihydro-1H-isoquinolin-2-yl)-2-hydroxy-propyl]-1-methyl-8-[4-(trifluoromethyl)cyclohexen-1-yl]-2,3-dihydro-1,4-benzodiazepin-5-one]",100 to 1000 nM
3,"CC(O)CN1CCC(Oc2ccc3c(n2)OC(C)(C)CN(C[C@H](O)CN2CCc4ccccc4C2)C3=O)CC1 (stereo partly drawn) [Example 248, 4-[(2R)-3-(3,4-dihydro-1H-isoquinolin-2-yl)-2-hydroxy-propyl]-8-[[1-(2-hydroxypropyl)-4-piperidyl]oxy]-2,2-dimethyl-3H-pyrido[3,2-f][1,4]oxazepin-5-one]",1 to 100 nM
4,"CN1CCC[C@@H](Oc2ccc3c(c2)OCCN(C[C@H](O)CN2CCc4ccccc4C2)C3=O)C1 [Example 218, 4-[(2R)-3-(3,4-dihydro-1H-isoquinolin-2-yl)-2-hydroxypropyl]-8-[(1-methyl-3-piperidyl)oxy]-2,3-dihydro-1,4-benzoxazepin-5-one]",100 to 1000 nM
5,"CN(C1CCC(Oc2ccc3c(c2)OCCN(C[C@H](O)CN2CCc4ccccc4C2)C3=O)CC1)C1COC1 (stereo partly drawn) [Example 198, 4-[(2R)-3-(3,4-dihydro-1H-isoquinolin-2-yl)-2-hydroxypropyl]-8-[4-[methyl(oxetan-3-yl)amino]cyclohexoxy]-2,3-dihydro-1,4-benzoxazepin-5-one]",1 to 100 nM
6,"O=C1c2ccc(-c3ccncc3)cc2OCCN1C[C@H](O)CN1CCc2ccccc2C1 [Example 225, 4-[(2R)-3-(3,4-dihydro-1H-isoquinolin-2-yl)-2-hydroxy-propyl]-8-(4-pyridyl)-2,3-dihydro-1,4-benzoxazepin-5-one]",100 to 1000 nM
7,"O=C1c2ccc(CN3CC4(COC4)C3)cc2OCCN1C[C@H](O)CN1CCc2ccccc2C1 [Example 28, 4-[(2R)-3-(3,4-dihydro-1H-isoquinolin-2-yl)-2-hydroxy-propyl]-8-(2-oxa-6-azaspiro[3.3]heptan-6-ylmethyl)-2,3-dihydro-1,4-benzoxazepin-5-one]",1 to 100 nM
8,"CC1(O)CCN(Cc2ccc3c(c2)OCCN(C[C@H](O)CN2CCc4ccccc4C2)C3=O)C1 (stereo partly drawn) [Example 40, 4-[(2R)-3-(3,4-dihydro-1H-isoquinolin-2-yl)-2-hydroxy-propyl]-8-[(3-hydroxy-3-methyl-pyrrolidin-1-yl)methyl]-2,3-dihydro-1,4-benzoxazepin-5-one]",1 to 100 nM
9,"CN1CCN(C[C@H](O)CN2CCc3ccccc3C2)C(=O)c2ccc(OC3CCN(C4CCC4)CC3)cc21 [Example 127, 8-[(1-cyclobutyl-4-piperidyl)oxy]-4-[(2R)-3-(3,4-dihydro-1H-isoquinolin-2-yl)-2-hydroxy-propyl]-1-methyl-2,3-dihydro-1,4-benzodiazepin-5-one]",1 to 100 nM
10,"O=C1c2ccc(C#CCO)cc2OCCN1C[C@H](O)CN1CCc2ccccc2C1 [Example 223, 4-[(2R)-3-(3,4-dihydro-1H-isoquinolin-2-yl)-2-hydroxy-propyl]-8-(3-hydroxypro-1-pynyl)-2,3-dihydro-1,4-benzoxazepin-5-one]",100 to 1000 nM
11,"C[C@@H]1CN(C[C@H](O)CN2CCc3ccccc3C2)C(=O)c2ccc(OC3CCN(C)CC3)cc2O1 [Example 143, (2R)-4-[(2R)-3-(3,4-dihydro-1H-isoquinolin-2-yl)-2-hydroxypropyl]-2-methyl-8-[(1-methyl-4-piperidyl)oxy]-2,3-dihydro-1,4-benzoxazepin-5-one]",100 to 1000 nM
12,"Cc1c(-c2ccc3c(c2)OCCN(C[C@H](O)CN2CCc4ccccc4C2)C3=O)cnn1C [Example 233, 4-[(2R)-3-(3,4-dihydro-1H-isoquinolin-2-yl)-2-hydroxy-propyl]-8-(1,5-dimethylpyrazol-4-yl)-2,3-dihydro-1,4-benzoxazepin-5-one]",100 to 1000 nM
13,"O=C1c2ccc(Br)cc2OCCN1C[C@H](O)CN1CCc2ccccc2C1 [Example 151, 8-bromo-4-[(2R)-3-(3,4-dihydro-1H-isoquinolin-2-yl)-2-hydroxy-propyl]-2,3-dihydro-1,4-benzoxazepin-5-one]",1 to 100 nM
14,"CC(=O)N1CC(Oc2ccc3c(c2)OCCN(C[C@H](O)CN2CCc4ccccc4C2)C3=O)C1 [Example 83, 8-(1-acetylazetidin-3-yl)oxy-4-[(2R)-3-(3,4-dihydro-1H-isoquinolin-2-yl)-2-hydroxy-propyl]-2,3-dihydro-1,4-benzoxazepin-5-one]",100 to 1000 nM
15,C[C@@H]1CN(C[C@H](O)CN2CCc3ccccc3C2)C(=O)c2ccc(OC3CC4CCC(C3)N4CCO)cc2O1 (stereo partly drawn) [Example 241],100 to 1000 nM
16,"O=C1c2ccc(CN3CCCC(F)(F)C3)cc2OCCN1C[C@H](O)CN1CCc2ccccc2C1 [Example 42, 8-[(3,3-difluoro-1-piperidyl)methyl]-4-[(2R)-3-(3,4-dihydro-1H-isoquinolin-2-yl)-2-hydroxy-propyl]-2,3-dihydro-1,4-benzoxazepin-5-one]",100 to 1000 nM
17,"CCN1CCC(Oc2ccc3c(c2)N(C)CCN(C[C@H](O)CN2CCc4ccccc4C2)C3=O)CC1 [Example 126, 4-[(2R)-3-(3,4-dihydro-1H-isoquinolin-2-yl)-2-hydroxy-propyl]-8-[(1-ethyl-4-piperidyl)oxy]-1-methyl-2,3-dihydro-1,4-benzodiazepin-5-one]",100 to 1000 nM
18,"CC(=O)N1CCC(Oc2ccc3c(c2)OC(C)(C)CN(C[C@H](O)CN2CCc4ccccc4C2)C3=O)CC1 [Example 180, 8-[(1-acetyl-4-piperidyl)oxy]-4-[(2R)-3-(3,4-dihydro-1H-isoquinolin-2-yl)-2-hydroxy-propyl]-2,2-dimethyl-3H-1,4-benzoxazepin-5-one]",1 to 100 nM
19,"CCN1CC=C(c2ccc3c(c2)OCCN(C[C@H](O)CN2CCc4ccccc4C2)C3=O)CC1 [Example 18, 4-[(2R)-3-(3,4-dihydro-1H-isoquinolin-2-yl)-2-hydroxy-propyl]-8-(1-ethyl-3,6-dihydro-2H-pyridin-4-yl)-2,3-dihydro-1,4-benzoxazepin-5-one]",100 to 1000 nM
20,"O=C1c2ccc(OCC3CCCCO3)cc2OCCN1C[C@H](O)CN1CCc2ccccc2C1 (stereo partly drawn) [Example 65, 4-[(2R)-3-(3,4-dihydro-1H-isoquinolin-2-yl)-2-hydroxy-propyl]-8-(tetrahydropyran-2-ylmethoxy)-2,3-dihydro-1,4-benzoxazepin-5-one]",100 to 1000 nM
21,"CC1CN(C[C@H](O)CN2CCc3ccccc3C2)C(=O)c2ccc(OC3CCNCC3)cc2O1 (stereo partly drawn) [Example 140, 4-[(2R)-3-(3,4-dihydro-1H-isoquinolin-2-yl)-2-hydroxypropyl]-2-methyl-8-(4-piperidyloxy)-2,3-dihydro-1,4-benzoxazepin-5-one di hydrochloride]",100 to 1000 nM
22,"C[C@@H]1CCCN1Cc1ccc2c(c1)OCCN(C[C@H](O)CN1CCc3ccccc3C1)C2=O [Example 36, 4-[(2R)-3-(3,4-dihydro-1H-isoquinolin-2-yl)-2-hydroxy-propyl]-8-[[(2R)-2-methylpyrrolidin-1-yl]methyl]-2,3-dihydro-1,4-benzoxazepin-5-one]",100 to 1000 nM
23,"O=C1c2ccc(OCC(F)(F)F)cc2OCCN1C[C@H](O)CN1CCc2ccccc2C1 [Example 71, 4-[(2R)-3-(3,4-dihydro-1H-isoquinolin-2-yl)-2-hydroxy-propyl]-8-(2,2,2-trifluoroethoxy)-2,3-dihydro-1,4-benzoxazepin-5-one]",100 to 1000 nM
24,"CC(C)N1CCC(Oc2ccc3c(c2)OCCN(C[C@H](O)CN2CCc4ccccc4C2)C3=O)CC1 [Example 89, 4-[(2R)-3-(3,4-dihydro-1H-isoquinolin-2-yl)-2-hydroxy-propyl]-8-[(1-isopropyl-4-piperidyl)oxy]-2,3-dihydro-1,4-benzoxazepin-5-one]",1 to 100 nM
25,"CN1CCOC(COc2ccc3c(c2)OCCN(C[C@H](O)CN2CCc4ccccc4C2)C3=O)C1 (stereo partly drawn) [Example 104, 4-[(2R)-3-(3,4-dihydro-1H-isoquinolin-2-yl)-2-hydroxy-propyl]-8-[(4-methylmorpholin-2-yl)methoxy]-2,3-dihydro-1,4-benzoxazepin-5-one]",100 to 1000 nM
26,"CN1CCC(Oc2ccc3c(c2)N(C)CCN(C[C@H](O)CN2CCc4ccccc4C2)C3=O)C1 (stereo partly drawn) [Example 132, 4-[(2R)-3-(3,4-dihydro-1H-isoquinolin-2-yl)-2-hydroxy-propyl]-1-methyl-8-(1-methylpyrrolidin-3-yl)oxy-2,3-dihydro-1,4-benzodiazepin-5-one]",100 to 1000 nM
27,"COCCN1CC[C@@H](Oc2ccc3c(c2)OCCN(C[C@H](O)CN2CCc4ccccc4C2)C3=O)C1 [Example 272, 4-[(2R)-3-(3,4-dihydro-1H-isoquinolin-2-yl)-2-hydroxy-propyl]-8-[(3R)-1-(2-methoxyethyl)pyrrolidin-3-yl]oxy-2,3-dihydro-1,4-benzoxazepin-5-one]",100 to 1000 nM
28,"CC1(C)CN(C[C@H](O)CN2CCc3ccccc3C2)C(=O)c2ccc(CN3CC4(COC4)C3)cc2O1 [Example 170, 4-[(2R)-3-(3,4-dihydro-1H-isoquinolin-2-yl)-2-hydroxy-propyl]-2,2-dimethyl-8-(2-oxa-6-azaspiro[3.3]heptan-6-ylmethyl)-3H-1,4-benzoxazepin-5-one]",100 to 1000 nM
29,"C[C@@H]1CN(C[C@H](O)CN2CCc3ccccc3C2)C(=O)c2ccc(OC3CCN(C[C@@H](C)O)CC3)cc2O1 [Example 268, (2R)-4-[(2R)-3-(3,4-dihydro-1H-isoquinolin-2-yl)-2-hydroxy-propyl]-8-[[1-[(2R)-2-hydroxypropyl]-4-piperidyl]oxy]-2-methyl-2,3-dihydro-1,4-benzoxazepin-5-one]",100 to 1000 nM
30,"N#Cc1ccc2c(c1)CCCN(C[C@H](O)CN1CCc3ccccc3C1)C2=O [Example 9, 2-[(2R)-3-(3,4-dihydro-1H-isoquinolin-2-yl)-2-hydroxy-propyl]-1-oxo-4,5-dihydro-3H-2-benz azepin-7-carbonitrile]",100 to 1000 nM
